The values below come from paper PMC10615251 (Biochemistry, 2023).

The test system of assay [1] is T1, UDP-α-D-glucuronate 6-decarboxylase (HS:15.19).
T1 construct: gene HS15.19
Briefly: anion exchange chromatography of UDP-xylose formed, […] nm. It is filed as biochemical, Campylobacter jejuni. Particulars: 50 mM phosphate pH 6.5.

In assay [2] the test system is T2, UDP-α-D-glucose 6-dehydrogenase (HS:15.18).
T2 construct: gene HS15.18
Particulars: read-out: KNAD (apparent); 1.0 mM UDP-D-glucose, 50 mM triethanolamine pH 8.7, 25 °C.

For assay [3], the system named is T3, UDP-α-D-xylose 4-epimerase (HS:15.17).
T3 construct: gene HS15.17
Particulars: read-out: KUDP-xyl (apparent); 50 mM HEPES/KOH pH 8.0, 25 °C.

For `NC(=O)c1ccc[n+]([C@@H]2O[C@H](COP(=O)(O)OP(=O)(O)OC[C@H]3O[C@@H](n4cnc5c(N)ncnc54)[C@H](O)[C@@H]3O)[C@@H](O)[C@H]2O)c1` [NAD^+], in assay [1] (2.5 mM UDP-D-glucuronate), the “Ka (activation constant, concentration at 1⁄2 saturation)” value was found to be 17 ± 5 µM. Besides, the Km in assay [2] amounted to 120 ± 10 µM.
As for `O=C(O)[C@H]1O[C@H](OP(=O)(O)OP(=O)(O)OC[C@H]2O[C@@H](n3ccc(=O)[nH]c3=O)[C@H](O)[C@@H]2O)[C@H](O)[C@@H](O)[C@@H]1O` [compound 4, UDP-α-D-glucuronate], in assay [1] (read-out: KUDP-glc (apparent), 0.30 mM NAD+), the Km turned out to be 250 ± 30 µM.
On to `O=c1ccn([C@@H]2O[C@H](COP(=O)(O)OP(=O)(O)O[C@H]3OC[C@@H](O)[C@H](O)[C@H]3O)[C@@H](O)[C@H]2O)c(=O)[nH]1` [compound 5, UDP-α-D-xylose], for which, in assay [3], the Km was determined as 125 ± 13 µM.
